What all share (assay): SILAC proteomics / in-gel fluorescence, competition of probe 13-t labeling by 3a
Experiment [1] deals with proteins of HEK293T cells transiently overexpressing caspase-6 (Homo sapiens, UniProt P07814). To be noted: Comp; protein EPRS P07814.
Experiment [2] concerns the target proteins of HEK293T cells transiently overexpressing caspase-6 (Homo sapiens, UniProt Q86VP6). To be noted: Comp; protein CAND1 Q86VP6.
Experiment [3] has as its target proteins of HEK293T cells transiently overexpressing caspase-6 (Homo sapiens, UniProt Q9Y230). The following applies: Comp; protein RUVBL2 Q9Y230.
The target of experiment [4] is proteins of HEK293T cells transiently overexpressing caspase-6 (Homo sapiens, UniProt P06733). The following applies: Comp; protein ENO1 P06733.
Experiment [5] deals with proteins of HEK293T cells transiently overexpressing caspase-6 (Homo sapiens, UniProt P62826). The following applies: Comp; protein RAN P62826.
Experiment [6] has as its target proteins of HEK293T cells transiently overexpressing caspase-6 (Homo sapiens, UniProt P34897). The following applies: Comp; protein SHMT2 P34897.
For experiment [7], the target named is proteins of HEK293T cells transiently overexpressing caspase-6 (Homo sapiens, UniProt P39748). To be noted: Comp; protein FEN1 P39748.
The target in experiment [8] is T1, proteins of HEK293T cells transiently overexpressing caspase-6 (Homo sapiens, UniProt O00567).
T1 sequence (O00567 1-594): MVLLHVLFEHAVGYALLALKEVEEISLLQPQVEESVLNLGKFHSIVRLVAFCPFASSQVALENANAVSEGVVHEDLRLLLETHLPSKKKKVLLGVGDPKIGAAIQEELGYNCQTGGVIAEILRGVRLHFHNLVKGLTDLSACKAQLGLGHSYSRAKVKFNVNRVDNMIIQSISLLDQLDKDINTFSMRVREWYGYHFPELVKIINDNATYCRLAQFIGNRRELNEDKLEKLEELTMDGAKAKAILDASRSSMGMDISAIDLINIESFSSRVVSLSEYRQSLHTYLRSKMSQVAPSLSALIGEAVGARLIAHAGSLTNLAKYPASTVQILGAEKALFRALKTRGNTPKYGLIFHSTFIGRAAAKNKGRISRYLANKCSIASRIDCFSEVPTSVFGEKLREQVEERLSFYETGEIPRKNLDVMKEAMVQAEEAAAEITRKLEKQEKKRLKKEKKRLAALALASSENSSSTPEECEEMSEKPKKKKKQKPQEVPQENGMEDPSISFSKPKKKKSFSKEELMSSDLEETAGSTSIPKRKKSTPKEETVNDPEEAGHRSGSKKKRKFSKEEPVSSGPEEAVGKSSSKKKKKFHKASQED

For experiment [9], the target named is T2, proteins of HEK293T cells transiently overexpressing caspase-6 (Homo sapiens, UniProt P62258).
T2 sequence (P62258 1-255): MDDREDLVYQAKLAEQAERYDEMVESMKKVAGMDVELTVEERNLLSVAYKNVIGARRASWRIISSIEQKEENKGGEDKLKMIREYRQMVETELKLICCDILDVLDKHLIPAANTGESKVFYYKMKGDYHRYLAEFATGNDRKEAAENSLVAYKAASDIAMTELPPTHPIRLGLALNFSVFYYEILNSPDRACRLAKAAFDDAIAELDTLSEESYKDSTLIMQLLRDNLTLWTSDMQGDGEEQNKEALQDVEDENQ
To be noted: Comp; protein YWHAE P62258.

In experiment [10] the target is proteins of HEK293T cells transiently overexpressing caspase-6 (Homo sapiens, UniProt P13804). To be noted: Comp; protein ETFA P13804.
Experiment [11] deals with proteins of HEK293T cells transiently overexpressing caspase-6 (Homo sapiens, UniProt P62701). The following applies: Comp; protein RPS4X P62701.
In experiment [12] the target is T3, proteins of HEK293T cells transiently overexpressing caspase-6 (Homo sapiens, UniProt O75844).
T3 sequence (O75844 1-475): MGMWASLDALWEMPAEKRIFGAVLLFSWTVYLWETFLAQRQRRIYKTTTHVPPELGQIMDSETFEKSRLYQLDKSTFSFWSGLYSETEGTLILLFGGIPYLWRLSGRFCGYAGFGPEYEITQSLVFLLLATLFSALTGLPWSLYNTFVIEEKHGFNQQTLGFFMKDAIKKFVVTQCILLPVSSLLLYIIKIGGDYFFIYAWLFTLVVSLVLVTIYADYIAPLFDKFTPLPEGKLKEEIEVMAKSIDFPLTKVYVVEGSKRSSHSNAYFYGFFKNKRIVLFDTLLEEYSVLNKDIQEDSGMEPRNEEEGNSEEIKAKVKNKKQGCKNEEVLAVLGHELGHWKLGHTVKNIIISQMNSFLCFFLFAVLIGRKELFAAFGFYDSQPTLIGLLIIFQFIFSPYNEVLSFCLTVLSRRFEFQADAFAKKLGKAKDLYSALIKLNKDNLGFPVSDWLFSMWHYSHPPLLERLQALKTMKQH

Setting [13] is: protein NOP56 (O00567), Exp Comp, analysis C6, p 0.1250, 4 peptides.
Where [14] appears, read: protein ZMPSTE24 (O75844), Exp Comp, analysis C6, p 0.5000, 2 peptides.

This note sets out measurements from paper PMC10176470, “Engaging a Non-catalytic Cysteine Residue Drives Potent and Selective Inhibition of Caspase-6” (Journal of the American Chemical Society, 2023).

Sequence of proteins of HEK293T cells transiently overexpressing caspase-6 (Homo sapiens, UniProt P13804) (P13804 20-333): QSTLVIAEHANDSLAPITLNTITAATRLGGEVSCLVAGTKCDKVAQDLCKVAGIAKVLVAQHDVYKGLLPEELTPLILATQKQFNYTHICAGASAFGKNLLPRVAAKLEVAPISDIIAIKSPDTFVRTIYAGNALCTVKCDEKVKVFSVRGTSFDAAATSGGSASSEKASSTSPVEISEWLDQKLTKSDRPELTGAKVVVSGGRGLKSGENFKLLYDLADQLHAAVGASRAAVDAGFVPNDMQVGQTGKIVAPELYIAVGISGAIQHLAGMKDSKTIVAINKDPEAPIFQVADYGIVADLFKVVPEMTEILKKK
Sequence of proteins of HEK293T cells transiently overexpressing caspase-6 (Homo sapiens, UniProt P06733) (P06733 whole entry): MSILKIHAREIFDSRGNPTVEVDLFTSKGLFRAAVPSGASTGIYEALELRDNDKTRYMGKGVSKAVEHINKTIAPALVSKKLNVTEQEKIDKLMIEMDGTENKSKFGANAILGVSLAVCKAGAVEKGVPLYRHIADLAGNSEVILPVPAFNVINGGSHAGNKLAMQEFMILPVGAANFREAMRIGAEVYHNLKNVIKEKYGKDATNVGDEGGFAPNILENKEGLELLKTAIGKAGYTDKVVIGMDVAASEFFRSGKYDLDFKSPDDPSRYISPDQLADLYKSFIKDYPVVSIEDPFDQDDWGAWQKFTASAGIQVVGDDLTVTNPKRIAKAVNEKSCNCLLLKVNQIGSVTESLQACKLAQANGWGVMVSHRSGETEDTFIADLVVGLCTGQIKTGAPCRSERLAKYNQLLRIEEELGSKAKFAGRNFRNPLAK
Sequence of proteins of HEK293T cells transiently overexpressing caspase-6 (Homo sapiens, UniProt Q9Y230) (Q9Y230 whole entry): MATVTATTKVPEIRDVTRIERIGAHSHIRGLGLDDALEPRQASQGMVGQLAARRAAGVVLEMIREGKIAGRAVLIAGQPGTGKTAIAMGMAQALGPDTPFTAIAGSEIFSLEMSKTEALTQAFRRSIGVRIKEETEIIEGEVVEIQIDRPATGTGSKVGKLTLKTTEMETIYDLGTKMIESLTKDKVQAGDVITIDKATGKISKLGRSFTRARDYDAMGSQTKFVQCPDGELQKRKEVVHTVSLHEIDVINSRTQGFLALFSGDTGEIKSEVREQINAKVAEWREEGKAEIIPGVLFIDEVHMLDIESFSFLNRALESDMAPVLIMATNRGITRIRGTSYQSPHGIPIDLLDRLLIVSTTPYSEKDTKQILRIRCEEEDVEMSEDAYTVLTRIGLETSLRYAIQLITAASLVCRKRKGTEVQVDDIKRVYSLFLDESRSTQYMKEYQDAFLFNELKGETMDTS
Sequence of proteins of HEK293T cells transiently overexpressing caspase-6 (Homo sapiens, UniProt Q86VP6) (Q86VP6 whole entry): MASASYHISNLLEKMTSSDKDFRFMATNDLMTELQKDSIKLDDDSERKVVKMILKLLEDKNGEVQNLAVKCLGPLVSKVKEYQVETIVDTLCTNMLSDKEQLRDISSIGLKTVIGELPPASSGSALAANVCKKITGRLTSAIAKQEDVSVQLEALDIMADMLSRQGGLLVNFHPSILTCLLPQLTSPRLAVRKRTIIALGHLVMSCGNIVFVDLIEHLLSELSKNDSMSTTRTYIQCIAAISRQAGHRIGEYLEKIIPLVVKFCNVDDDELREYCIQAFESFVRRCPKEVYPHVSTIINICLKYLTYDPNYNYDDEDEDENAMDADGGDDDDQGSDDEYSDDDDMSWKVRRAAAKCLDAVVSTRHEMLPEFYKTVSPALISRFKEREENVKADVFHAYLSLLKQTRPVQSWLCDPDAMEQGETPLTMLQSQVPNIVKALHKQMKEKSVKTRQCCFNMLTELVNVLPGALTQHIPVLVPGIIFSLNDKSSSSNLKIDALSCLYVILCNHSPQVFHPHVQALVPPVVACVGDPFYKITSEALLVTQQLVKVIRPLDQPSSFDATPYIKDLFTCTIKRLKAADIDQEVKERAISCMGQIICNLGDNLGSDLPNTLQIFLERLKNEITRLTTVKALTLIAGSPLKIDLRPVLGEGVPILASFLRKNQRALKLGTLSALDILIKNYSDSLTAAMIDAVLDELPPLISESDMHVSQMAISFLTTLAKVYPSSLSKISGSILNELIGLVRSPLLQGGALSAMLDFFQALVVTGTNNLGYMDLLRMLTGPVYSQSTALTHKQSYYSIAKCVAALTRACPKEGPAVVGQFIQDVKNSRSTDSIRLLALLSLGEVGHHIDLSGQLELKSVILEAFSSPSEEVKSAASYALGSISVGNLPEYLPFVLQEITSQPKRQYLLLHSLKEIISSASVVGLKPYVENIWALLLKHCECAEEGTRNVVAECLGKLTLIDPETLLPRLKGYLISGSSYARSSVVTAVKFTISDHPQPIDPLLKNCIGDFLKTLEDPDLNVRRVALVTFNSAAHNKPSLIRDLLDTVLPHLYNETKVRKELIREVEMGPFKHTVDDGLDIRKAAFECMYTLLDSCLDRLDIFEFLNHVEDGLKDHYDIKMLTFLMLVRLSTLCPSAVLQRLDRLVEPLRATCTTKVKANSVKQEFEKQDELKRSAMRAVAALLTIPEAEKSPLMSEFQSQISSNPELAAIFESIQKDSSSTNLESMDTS
Sequence of proteins of HEK293T cells transiently overexpressing caspase-6 (Homo sapiens, UniProt P34897) (P34897 30-504): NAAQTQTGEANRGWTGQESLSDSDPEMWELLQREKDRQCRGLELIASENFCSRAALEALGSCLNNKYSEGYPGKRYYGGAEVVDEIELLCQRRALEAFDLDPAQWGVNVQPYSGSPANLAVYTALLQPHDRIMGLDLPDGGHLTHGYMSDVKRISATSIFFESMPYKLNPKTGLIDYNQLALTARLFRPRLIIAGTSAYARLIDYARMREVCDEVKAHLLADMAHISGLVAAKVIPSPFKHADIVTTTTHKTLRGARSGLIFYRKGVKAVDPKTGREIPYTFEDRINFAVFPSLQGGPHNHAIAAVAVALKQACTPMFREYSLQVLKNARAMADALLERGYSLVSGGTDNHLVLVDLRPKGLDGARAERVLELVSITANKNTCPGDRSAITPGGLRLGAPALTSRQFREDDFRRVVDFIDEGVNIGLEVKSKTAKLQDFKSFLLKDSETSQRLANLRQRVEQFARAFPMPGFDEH
Sequence of proteins of HEK293T cells transiently overexpressing caspase-6 (Homo sapiens, UniProt P39748) (P39748 whole entry): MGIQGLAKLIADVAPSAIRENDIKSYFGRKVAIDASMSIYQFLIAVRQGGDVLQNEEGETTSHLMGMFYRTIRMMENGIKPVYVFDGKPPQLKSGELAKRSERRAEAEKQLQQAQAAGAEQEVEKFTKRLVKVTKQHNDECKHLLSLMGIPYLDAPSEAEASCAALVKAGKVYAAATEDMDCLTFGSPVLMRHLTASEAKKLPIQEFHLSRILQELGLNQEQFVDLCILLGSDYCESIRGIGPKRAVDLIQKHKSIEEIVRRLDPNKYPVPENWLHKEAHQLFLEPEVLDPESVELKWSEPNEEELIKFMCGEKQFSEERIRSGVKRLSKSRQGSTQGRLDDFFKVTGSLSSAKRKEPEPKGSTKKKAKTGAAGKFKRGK
Sequence of proteins of HEK293T cells transiently overexpressing caspase-6 (Homo sapiens, UniProt P07814) (P07814 whole entry): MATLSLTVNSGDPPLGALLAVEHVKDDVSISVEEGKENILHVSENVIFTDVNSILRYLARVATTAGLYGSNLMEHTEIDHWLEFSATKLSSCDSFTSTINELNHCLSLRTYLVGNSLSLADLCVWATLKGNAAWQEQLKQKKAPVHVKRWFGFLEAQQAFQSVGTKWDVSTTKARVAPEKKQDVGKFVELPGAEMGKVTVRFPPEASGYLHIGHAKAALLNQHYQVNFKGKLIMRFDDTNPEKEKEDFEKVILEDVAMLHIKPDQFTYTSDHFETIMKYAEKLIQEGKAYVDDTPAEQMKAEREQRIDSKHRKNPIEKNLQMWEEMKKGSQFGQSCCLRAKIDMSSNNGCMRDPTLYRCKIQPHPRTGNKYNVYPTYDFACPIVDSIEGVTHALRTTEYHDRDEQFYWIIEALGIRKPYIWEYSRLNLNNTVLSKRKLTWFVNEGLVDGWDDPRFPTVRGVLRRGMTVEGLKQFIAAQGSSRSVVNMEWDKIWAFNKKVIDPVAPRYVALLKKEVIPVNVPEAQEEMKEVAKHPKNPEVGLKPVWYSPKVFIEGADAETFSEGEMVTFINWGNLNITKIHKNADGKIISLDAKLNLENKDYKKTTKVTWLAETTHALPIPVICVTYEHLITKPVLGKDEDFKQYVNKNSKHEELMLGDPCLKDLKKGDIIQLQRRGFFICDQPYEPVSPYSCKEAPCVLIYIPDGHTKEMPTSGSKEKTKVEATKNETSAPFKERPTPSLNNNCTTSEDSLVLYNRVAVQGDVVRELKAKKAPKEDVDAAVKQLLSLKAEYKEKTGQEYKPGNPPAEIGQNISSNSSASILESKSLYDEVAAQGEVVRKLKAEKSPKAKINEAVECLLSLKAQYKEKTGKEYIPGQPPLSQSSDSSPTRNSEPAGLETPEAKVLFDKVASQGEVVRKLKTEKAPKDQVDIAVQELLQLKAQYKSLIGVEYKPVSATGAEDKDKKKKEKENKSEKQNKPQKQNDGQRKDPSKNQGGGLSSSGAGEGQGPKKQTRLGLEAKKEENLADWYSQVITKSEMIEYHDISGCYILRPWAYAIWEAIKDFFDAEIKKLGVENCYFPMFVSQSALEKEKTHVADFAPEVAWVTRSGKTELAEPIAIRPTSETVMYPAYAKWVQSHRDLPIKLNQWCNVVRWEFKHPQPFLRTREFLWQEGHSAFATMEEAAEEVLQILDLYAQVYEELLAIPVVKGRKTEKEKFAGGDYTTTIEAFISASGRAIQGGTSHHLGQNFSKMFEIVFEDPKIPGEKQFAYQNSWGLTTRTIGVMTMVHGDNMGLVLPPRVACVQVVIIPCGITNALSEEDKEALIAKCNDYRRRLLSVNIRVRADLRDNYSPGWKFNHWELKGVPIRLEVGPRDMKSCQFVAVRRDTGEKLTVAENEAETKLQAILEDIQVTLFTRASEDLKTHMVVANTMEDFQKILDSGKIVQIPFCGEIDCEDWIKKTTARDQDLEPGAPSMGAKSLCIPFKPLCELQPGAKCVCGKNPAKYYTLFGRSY

Regarding `C=CS(=O)(=O)N1C[C@H](C(=O)Nc2ccc(OC(F)(F)F)cc2)C[C@@H](c2ccccc2)C1` [3a], the enrich.exp.med is reported as 0.7098 in experiment [1]; 0.6553 in [2]; 0.7589 in [3]; 0.6321 in [4]; 0.6474 in experiment [5]; 0.5876 in experiment [6]. Moreover, the enrich.exp.med in experiment [7] was determined as 0.6295; in experiment [8] (Comp, protein NOP56 O00567), 1.117; in experiment [9] it was 0.6349; in experiment [10], 0.7888; in [11] it was 0.5823; in experiment [12] (Comp, protein ZMPSTE24 O75844), 1.01. In addition, the enrich.exp.med.lin in [8] (setting [13]) was 2.169; in experiment [12] (setting [14]) it was 2.0144. Also, the results for the enrich.exp.med.log2 in [8] (setting [13]) and in experiment [12] (setting [14]) were 1.117 and 1.01, respectively.
